Experimental data taken from patent US6710043B1, “Amide compounds” (Fujisawa Pharmaceutical Co., Ltd., priority 1999, dated 2004).

Test system: Male Fischer 344 rats
Assay: Penile Erection in Rat
Type: in vivo
Settings: male Fischer 344 rats (n=7), observed for 60 minutes, mean number
Method: (This test was carried out according to a similar manner to that described in Jpn. J. Pharmacol., Vol. 64, 147-153 (1994))
Male Fischer 344 rats at the age of 8 weeks (n=7) were used. All rats were handled 3 minutes a day for three successive days before the tests. The rats were tested in groups of seven and various doses of the test compound were given in semi-randomized order. The test compounds were suspended in 0.5% methyl-cellulose immediately before use, and given intraperitoneally in a volume of 1 ml/kg just before the start of test. […] A mirror was situated behind each box […]. Data was expressed as a mean number.

Row | SMILES | Penile Erection (dose 1 mg/kg intraperitoneally) [number/hr] | Penile Erection (dose 0.32 mg/kg intraperitoneally) [number/hr]
1 | CC(=O)N1CCN(C(=O)Nc2ccc(F)cc2)CC1 [Example 2, 1-acetyl-4-(4-fluorophenylcarbamoyl)piperazine] | 1.14 | 
2 | O=C(NC1CCN(C(=O)C2CC2)CC1)c1ccc(F)cc1 [Example 19, N-(1-cyclopropylcarbonylpiperidin-4-yl)-4-fluorobenzamide] |  | 0.75
